# Measured values from EP4810052A2, “HCRHR2 SELECTIVE POLYPEPTIDES” (Gubra A/S, priority 2023, dated 2026).
# Starred links: 1 amine or outer side, 2 acyl side, 3 side chain; linkers in the order of their positions; H or OH if unused. Non-standard residues stand in square brackets, D forms with d. Residues, ends and D or L forms follow the SMILES beside them. Groups on a side chain read outwards from the residue. *: point of attachment. C20 diacid = O=C(O)CCCCCCCCCCCCCCCCCCC(=O)*; Pro(cis-4-F) = O=C(O)[C@@H]1C[C@H](F)CN1; γGlu = O=C(O)[C@H](CCC(=O)[*:2])N[*:1]; Nle = CCCC[C@H](N)C(=O)O; Ac5c = NC1(C(=O)O)CCCC1; AEEA = NCCOCCOCC(=O)O
# How the values were obtained:
# hCRHR2 = target: T1, hCRHR2 (Homo sapiens, UniProt Q13324); assay: HTRF cAMP assay, determination of hCRHR2 potency (peptide libraries 5 conc., purified peptides 11 conc.); format: cell-based; details: library peptides; matched molecular pairs L vs Nle in position X^38; read-out: Potency hCRHR2 pEC50 (converted)
# T1 sequence (Q13324 1-411): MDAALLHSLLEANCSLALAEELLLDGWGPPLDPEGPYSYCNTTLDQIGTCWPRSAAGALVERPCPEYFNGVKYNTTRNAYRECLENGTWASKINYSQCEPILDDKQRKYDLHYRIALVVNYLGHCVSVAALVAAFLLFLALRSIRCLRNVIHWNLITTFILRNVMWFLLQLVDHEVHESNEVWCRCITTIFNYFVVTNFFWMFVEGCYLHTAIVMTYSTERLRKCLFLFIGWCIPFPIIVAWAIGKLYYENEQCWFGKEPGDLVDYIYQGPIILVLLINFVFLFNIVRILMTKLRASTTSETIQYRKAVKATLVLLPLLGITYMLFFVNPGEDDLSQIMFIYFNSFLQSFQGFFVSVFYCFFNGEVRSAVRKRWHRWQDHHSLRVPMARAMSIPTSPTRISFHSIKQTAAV
# In short: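 Potency was read as cAMP accumulation in a stable CHO-K1 line expressing human CRHR2, used in suspension right after thawing. Detection relied on energy transfer from antibody-bound cryptate to d2-cAMP.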
# hCRHR1 = target: T2, hCRHR1 (Homo sapiens, UniProt P34998); assay: HTRF cAMP assay, determination of hCRHR1 potency (peptide libraries 5 conc., purified peptides 11 conc.); format: cell-based; details: library peptides; matched molecular pairs L vs Nle in position X^38; read-out: Potency hCRHR1 pEC50 (converted)
# T2 sequence (P34998 24-415): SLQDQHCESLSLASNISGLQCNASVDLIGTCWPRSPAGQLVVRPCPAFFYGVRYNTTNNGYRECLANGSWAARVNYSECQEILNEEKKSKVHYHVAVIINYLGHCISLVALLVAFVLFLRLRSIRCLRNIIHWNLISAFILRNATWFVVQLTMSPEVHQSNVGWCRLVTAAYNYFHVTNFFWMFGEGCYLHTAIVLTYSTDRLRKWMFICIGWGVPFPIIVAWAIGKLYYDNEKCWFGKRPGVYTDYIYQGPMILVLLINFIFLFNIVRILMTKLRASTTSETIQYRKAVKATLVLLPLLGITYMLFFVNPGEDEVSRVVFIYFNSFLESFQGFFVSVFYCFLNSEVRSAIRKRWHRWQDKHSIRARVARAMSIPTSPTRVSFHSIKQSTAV
# In short: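 CHO-K1 cells stably expressing human CRHR1, thawed from frozen stocks just before use, were stimulated in suspension with agonist peptides. cAMP was measured by HTRF competitive immunoassay (cryptate anti-cAMP antibody vs d2-cAMP).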
SMILES,EC50 (hCRHR2) [nM],EC50 (hCRHR1) [µM]
CC[C@H](C)[C@H](N)C(=O)N[C@H](C(=O)N[C@@H](CC(C)C)C(=O)N[C@@H](CO)C(=O)N[C@@H](CC(C)C)C(=O)N[C@@H](CC(=O)O)C(=O)NC1(C(=O)N2CCC[C@H]2C(=O)N[C@H](C(=O)NCC(=O)N[C@@H](CC(C)C)C(=O)N[C@@H](CC(C)C)C(=O)N[C@@H](CCC(N)=O)C(=O)N[C@H](C(=O)N[C@@H](CC(C)C)C(=O)N[C@@H](CC(C)C)C(=O)N[C@@H](CCC(=O)O)C(=O)N[C@@H](CCC(N)=O)C(=O)N[C@@H](C)C(=O)N[C@@H](CCCNC(=N)N)C(=O)N[C@@H](C)C(=O)N[C@@H](CCCNC(=N)N)C(=O)N[C@@H](CCC(N)=O)C(=O)N[C@@H](C)C(=O)N[C@@H](CCCNC(=N)N)C(=O)N[C@@H](CCC(=O)O)C(=O)N[C@@H](CCC(N)=O)C(=O)N[C@@H](C)C(=O)N[C@@H](CCCCNC(=O)COCCOCCNC(=O)COCCOCCNC(=O)CC[C@H](NC(=O)CC[C@H](NC(=O)CCCCCCCCCCCCCCCCCCC(=O)O)C(=O)O)C(=O)O)C(=O)N[C@H](C(=O)N[C@@H](CC(N)=O)C(=O)N[C@@H](C)C(=O)N[C@@H](CCC(=O)O)C(=O)N[C@H](C(=O)N[C@@H](CC(C)C)C(=O)N[C@@H](C)C(=O)N[C@@H](CCC(=O)O)C(=O)N[C@H](C(N)=O)C(C)C)[C@@H](C)CC)[C@@H](C)O)[C@@H](C)CC)[C@@H](C)CC)CCCC1)C(C)C [compound 78] (H-IVLSLD[Ac5c]PIGLLQILLEQARARQAREQAK([AEEA-AEEA-γGlu-γGlu-C20 diacid])TNAEILAEV-NH2),0.398,0.00794
CCCC[C@H](NC(=O)[C@@H](NC(=O)[C@H](CCC(=O)O)NC(=O)[C@H](C)NC(=O)[C@H](CC(N)=O)NC(=O)[C@@H](NC(=O)[C@H](CCCCNC(=O)COCCOCCNC(=O)COCCOCCNC(=O)CC[C@H](NC(=O)CC[C@H](NC(=O)CCCCCCCCCCCCCCCCCCC(=O)O)C(=O)O)C(=O)O)NC(=O)[C@H](C)NC(=O)[C@H](CCC(N)=O)NC(=O)[C@H](CCC(=O)O)NC(=O)[C@H](CCCNC(=N)N)NC(=O)[C@H](C)NC(=O)[C@H](CCC(N)=O)NC(=O)[C@H](CCCNC(=N)N)NC(=O)[C@H](C)NC(=O)[C@H](CCCNC(=N)N)NC(=O)[C@H](C)NC(=O)[C@H](CCC(N)=O)NC(=O)[C@H](CCC(=O)O)NC(=O)[C@H](CC(C)C)NC(=O)[C@H](CC(C)C)NC(=O)[C@@H](NC(=O)[C@H](CCC(N)=O)NC(=O)[C@H](CC(C)C)NC(=O)[C@H](CC(C)C)NC(=O)CNC(=O)[C@@H](NC(=O)[C@@H]1CCCN1C(=O)C1(NC(=O)[C@H](CC(=O)O)NC(=O)[C@H](CC(C)C)NC(=O)[C@H](CO)NC(=O)[C@H](CC(C)C)NC(=O)[C@@H](NC(=O)[C@@H](N)[C@@H](C)CC)C(C)C)CCCC1)[C@@H](C)CC)[C@@H](C)CC)[C@@H](C)O)[C@@H](C)CC)C(=O)N[C@@H](C)C(=O)N[C@@H](CCC(=O)O)C(=O)N[C@H](C(N)=O)C(C)C [compound 79] (H-IVLSLD[Ac5c]PIGLLQILLEQARARQAREQAK([AEEA-AEEA-γGlu-γGlu-C20 diacid])TNAEI[Nle]AEV-NH2),0.251,0.002
CC[C@H](C)[C@H](N)C(=O)N[C@H](C(=O)N[C@@H](CC(C)C)C(=O)N[C@@H](CO)C(=O)N[C@@H](CC(C)C)C(=O)N[C@@H](CC(=O)O)C(=O)N[C@H](C(=O)N1C[C@@H](F)C[C@H]1C(=O)N[C@H](C(=O)NCC(=O)N[C@@H](CC(C)C)C(=O)N[C@@H](CC(C)C)C(=O)N[C@@H](CCC(N)=O)C(=O)N[C@H](C(=O)N[C@@H](CC(C)C)C(=O)N[C@@H](CC(C)C)C(=O)N[C@H](C(=O)N[C@@H](CCC(N)=O)C(=O)N[C@@H](C)C(=O)N[C@@H](CCCNC(=N)N)C(=O)N[C@@H](C)C(=O)N[C@@H](CCCNC(=N)N)C(=O)N[C@@H](C)C(=O)N[C@@H](C)C(=O)N[C@@H](CCCNC(=N)N)C(=O)N[C@@H](CCC(=O)O)C(=O)N[C@@H](CCC(N)=O)C(=O)N[C@@H](C)C(=O)N[C@@H](CCCCNC(=O)COCCOCCNC(=O)COCCOCCNC(=O)CC[C@H](NC(=O)CC[C@H](NC(=O)CCCCCCCCCCCCCCCCCCC(=O)O)C(=O)O)C(=O)O)C(=O)N[C@H](C(=O)N[C@@H](CC(N)=O)C(=O)N[C@@H](C)C(=O)N[C@@H](CCC(=O)O)C(=O)N[C@H](C(=O)N[C@@H](CC(C)C)C(=O)N[C@@H](C)C(=O)N[C@@H](CCC(=O)O)C(=O)N[C@H](C(N)=O)C(C)C)[C@@H](C)CC)[C@@H](C)O)[C@@H](C)O)[C@@H](C)CC)[C@@H](C)CC)C(C)C)C(C)C [compound 80] (H-IVLSLDV[Pro(cis-4-F)]IGLLQILLTQARARAAREQAK([AEEA-AEEA-γGlu-γGlu-C20 diacid])TNAEILAEV-NH2),1,25.1
CCCC[C@H](NC(=O)[C@@H](NC(=O)[C@H](CCC(=O)O)NC(=O)[C@H](C)NC(=O)[C@H](CC(N)=O)NC(=O)[C@@H](NC(=O)[C@H](CCCCNC(=O)COCCOCCNC(=O)COCCOCCNC(=O)CC[C@H](NC(=O)CC[C@H](NC(=O)CCCCCCCCCCCCCCCCCCC(=O)O)C(=O)O)C(=O)O)NC(=O)[C@H](C)NC(=O)[C@H](CCC(N)=O)NC(=O)[C@H](CCC(=O)O)NC(=O)[C@H](CCCNC(=N)N)NC(=O)[C@H](C)NC(=O)[C@H](C)NC(=O)[C@H](CCCNC(=N)N)NC(=O)[C@H](C)NC(=O)[C@H](CCCNC(=N)N)NC(=O)[C@H](C)NC(=O)[C@H](CCC(N)=O)NC(=O)[C@@H](NC(=O)[C@H](CC(C)C)NC(=O)[C@H](CC(C)C)NC(=O)[C@@H](NC(=O)[C@H](CCC(N)=O)NC(=O)[C@H](CC(C)C)NC(=O)[C@H](CC(C)C)NC(=O)CNC(=O)[C@@H](NC(=O)[C@@H]1C[C@H](F)CN1C(=O)[C@@H](NC(=O)[C@H](CC(=O)O)NC(=O)[C@H](CC(C)C)NC(=O)[C@H](CO)NC(=O)[C@H](CC(C)C)NC(=O)[C@@H](NC(=O)[C@@H](N)[C@@H](C)CC)C(C)C)C(C)C)[C@@H](C)CC)[C@@H](C)CC)[C@@H](C)O)[C@@H](C)O)[C@@H](C)CC)C(=O)N[C@@H](C)C(=O)N[C@@H](CCC(=O)O)C(=O)N[C@H](C(N)=O)C(C)C [compound 81] (H-IVLSLDV[Pro(cis-4-F)]IGLLQILLTQARARAAREQAK([AEEA-AEEA-γGlu-γGlu-C20 diacid])TNAEI[Nle]AEV-NH2),0.2,398
CC[C@H](C)[C@H](N)C(=O)N[C@H](C(=O)N[C@@H](CC(C)C)C(=O)N[C@@H](CO)C(=O)N[C@@H](CC(C)C)C(=O)N[C@@H](CC(=O)O)C(=O)N[C@H](C(=O)N1CCC[C@H]1C(=O)N[C@H](C(=O)NCC(=O)N[C@@H](CC(C)C)C(=O)N[C@@H](CC(C)C)C(=O)N[C@@H](CCC(N)=O)C(=O)N[C@H](C(=O)N[C@@H](CC(C)C)C(=O)N[C@@H](CC(C)C)C(=O)N[C@@H](CO)C(=O)N[C@@H](CCC(N)=O)C(=O)N[C@@H](C)C(=O)N[C@@H](CCCNC(=N)N)C(=O)N[C@@H](C)C(=O)N[C@@H](CCCNC(=N)N)C(=O)N[C@@H](C)C(=O)N[C@@H](C)C(=O)N[C@@H](CCCNC(=N)N)C(=O)N[C@@H](CCC(=O)O)C(=O)N[C@@H](CCC(N)=O)C(=O)N[C@@H](C)C(=O)N[C@@H](CCCCNC(=O)COCCOCCNC(=O)COCCOCCNC(=O)CC[C@H](NC(=O)CC[C@H](NC(=O)CCCCCCCCCCCCCCCCCCC(=O)O)C(=O)O)C(=O)O)C(=O)N[C@H](C(=O)N[C@@H](CC(N)=O)C(=O)N[C@@H](C)C(=O)N[C@@H](CCC(=O)O)C(=O)N[C@H](C(=O)N[C@@H](CC(C)C)C(=O)N[C@@H](C)C(=O)N[C@@H](CCC(=O)O)C(=O)N[C@H](C(N)=O)C(C)C)[C@@H](C)CC)[C@@H](C)O)[C@@H](C)CC)[C@@H](C)CC)C(C)C)C(C)C [compound 82] (H-IVLSLDVPIGLLQILLSQARARAAREQAK([AEEA-AEEA-γGlu-γGlu-C20 diacid])TNAEILAEV-NH2),0.631,158
